# Legend:
# [1] = test system: alternative pathway-mediated erythrocyte lysis; conditions: cited from earlier work
# [2] = test system: complement activation in human serum; conditions: cited from earlier work
# [3] = test system: heparin/protamine-induced complement activation; conditions: primates; cited from earlier work
# [4] = test system: porcine-to-human xenograft; conditions: porcine-to-human xenograft perfused with human blood; cited from earlier work
# complement activation [5] = conditions: cardio-pulmonary bypass, plasmapheresis, dialysis models; cited from earlier work
# complement activation [6] = conditions: in vivo animal models; cited from earlier work
# [7] = test system: activation of the complement system by immunocomplexes (C3 fixation); assay: Complement inhibition assay: inhibition of C3 fixation (C3b/iC3b deposition) to ovalbumin-anti-ovalbumin complexes in normal human plasma; format: biochemical; conditions: complement-inhibiting activity
# Procedure: Complement activation inhibition was assessed by measuring the inhibition of C3 fixation to ovalbumin—anti-ovalbumin complexes in normal human plasma. Microtiter wells were coated with 50 μl of ovalbumin (10 mg/ml) for 2 hr at 25° C. (overnight at 4° C.). The wells were saturated with 200 μl of 10 mg/ml BSA for 1 hr at 25° C. and then a rabbit anti-ovalbumin antibody was added to form an immunocomplex by which complement can be activated. Thirty microliters of peptides at various concentrations were added directly to each well followed by 30 μl of a 1:80 dilution of human plasma. After 30 min incubation, bound C3b/iC3b was detected using a goat anti-human C3 BRP-conjugated antibody. Color was developed by adding ABTS peroxidase substrate and optical density measured at 405 nm. The concentration of the peptide causing 50% inhibition of C3b/iC3b deposition was taken as the IC50 and used to compare the activities of various peptides.
compound,measurement,setting,value
CC[C@H](C)[C@H](N)C(=O)N[C@H]1CSSC[C@@H](C(=O)N[C@H](C(N)=O)[C@@H](C)O)NC(=O)[C@H](CCCN=C(N)N)NC(=O)[C@H](Cc2cnc[nH]2)NC(=O)[C@H](Cc2cnc[nH]2)NC(=O)CNC(=O)[C@H](Cc2c[nH]c3ccccc23)NC(=O)[C@H](CC(=O)O)NC(=O)[C@H](CCC(N)=O)NC(=O)[C@H](C(C)C)NC(=O)[C@H](C(C)C)NC1=O [Compstatin],IC50,[1],12 µM
same,inhibition of complement activation in human serum,[2],inhibit complement activation in human serum
same,inhibition of heparin/protamine-induced complement activation,[3],inhibit heparin/protamine-induced complement activation in primates without significant side effects
same,lifetime of xenograft,[4],prolong the lifetime of a porcine-to-human xenograft perfused with human blood
same,inhibition of complement activation in extra-corporeal circuit models,complement activation [5],"inhibit complement activation in models of cardio-pulmonary bypass, plasmapheresis, and dialysis extra-corporeal circuits"
sCR1: recombinant form of complement receptor 1 known as soluble complement receptor 1,suppression of complement activation,complement activation [6],suppress complement activation in in vivo animal models
"Ac-ICVWQDWGAHRCdT-COOH [Ac- 4W, 9A13dT —OH]",activity compared with another peptide (in words),[7],activity equal to that of peptide SEQ ID NO:5
